Earlier results as cited in paper PMC3184248 (Angewandte Chemie (International ed. in English), 2011).

How the values were obtained:
[1] = 1.5T, 37 °C
[2] = 1.5T, 37 °C; remark: listed apart in the source

relaxivity in buffer [1]: 3.3 mM⁻¹ s⁻¹
relaxivity in plasma [2]: 4.1 mM⁻¹ s⁻¹
Substance: GdDTPA
